Source: patent US6121296A, “Transition-state inhibitors for nucleoside hydrolase and transferase reactions” (Albert Einstein College of Medicine of Yeshiva University, priority 1998, dated 2000)
“Also recorded” adds a separate entry of the source. Read-outs that look alike come from different tables or passages of the source.

Experiments:
[1] = target: T1, nucleoside hydrolase (Crithidia fasciculata, UniProt Q27546); assay: Nucleoside hydrolase purified from C. fasciculata: substrate kinetics and inhibition (Table III); type: biochemical; details: for Substrate or inhibitor concentration (substrate activity limit; nucleoside concentration in parentheses): Table III lower part; for inhibition pattern: vs inosine; for Km / Vmax: Table III; for Km / Vmax / Vmax /Km: compound as substrate
T1 construct: nucleoside hydrolase was purified from C. fasciculata as described above; endogenous in cells; host or cells: Crithidia fasciculata cells grown in a 300-liter fermenter
T1 sequence (Q27546 1-315): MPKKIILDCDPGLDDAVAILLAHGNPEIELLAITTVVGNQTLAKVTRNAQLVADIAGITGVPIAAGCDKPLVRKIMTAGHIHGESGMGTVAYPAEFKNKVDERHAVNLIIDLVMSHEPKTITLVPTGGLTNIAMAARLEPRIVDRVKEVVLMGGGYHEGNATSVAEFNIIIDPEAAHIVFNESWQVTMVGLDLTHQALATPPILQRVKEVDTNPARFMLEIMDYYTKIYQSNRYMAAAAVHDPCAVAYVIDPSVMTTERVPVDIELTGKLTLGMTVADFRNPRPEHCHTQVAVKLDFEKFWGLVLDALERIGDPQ
Procedure: The assay volumes were […]. The reaction was terminated by the addition of […] of 1.0 M HCl. […] The color was developed at 95° C. for 8 minutes and the optical absorbance measured at 450 nm. Enzymatic activity was expressed as millimoles of reducing sugar formed per minute per milligram of protein. During the initial stages of purification a modified assay which removes excess protein was used. Protein solutions of 1-5 ml were added to 100 ml of the assay mixture and incubated for the desired time. The assay was terminated by the addition of […] of 0.1 M ZnSO4. Excess Zn^2+ was removed by the addition of […] of 0.1 M NaOH. After centrifugation, 250 ml of supernatant was removed and assayed for reducing sugar. […] Arsenate readily replaces phosphate in the reaction and the product ribose 1-arsenate rapidly hydrolazes to release ribose which is detected in the reducing sugar assay.
At other pH values, a mixed buffer system was used which contained 30 mM each of acetate. Mes, Pipes, Hepes, Bicine, and Ches were adjusted to the desired pH with HCl or NaOH. The reaction was initiated with a small volume of enzyme and the increase in absorbance recorded at 280 nm.
Assay mixtures of 19 ml contained the desired concentration of inosine and inhibitor(s) together with approximately 3×10^4 cpm of radioactive inosine in 50 mM Hepes or triethanolamine buffer, pH 7.3. […] Samples of […] were removed at the appropriate intervals and spotted on polyethyleneimine cellulose thin layer plates which had been previously spotted with 4 ml of a solution containing 2.2 mM each of inosine and hypoxanthine.
Reaction mixtures were incubated for 5-27 hours and samples analyzed on a 7.8 mm×30 cm C18 -HPLC column eluted with 5 or 10% methanol in H2 O, 4 ml/minute. Samples were detected by the absorbance at 257 nm. Substrate activity with deoxyinosine was also measured at 500 MHz by NMR. […] Proton NMR spectra were collected in sets of eight scans over 15 minutes at room temperature.
Apparent inhibition constants (Ki(app)) were determined from the relationship shown in the following equation:
Vo /Vi +(inosine±Km (1+I/Ki(app))/(inosine+Km)
where Vo and Vi are the initial reaction rates without and with inhibitor, respectively. Km is the Michaelis constant for inosine, I is inhibitor concentration and Ki(app) is the apparent dissociation constant for inhibitor. In cases where the inhibitor is competitive with respect to substrate, Ki(app) is the dissociation constant for the enzyme-inhibitor complex.

[2] = target: T2, IU-nucleoside hydrolase (Crithidia fasciculata, UniProt Q27546, P2A); assay: biochemical; type: biochemical, C. fasciculata; details: for Ki: KI IU-nucleoside hydrolase, Table V
T2 construct: contained the coding region for the enzyme; made in house; host or cells: E. coli BL21 (DE3)pLysS, pET3d plasmid
From the text: Enzymes. Inosine-uridine nucleoside hydrolase (IU-nucleoside hydrolase) was purified from extracts of E. coli strain BL21 (DE3)pLysS which contained the coding region for the enzyme isolated from C. fasciculata in a pET3d expression plasmid. The DNA coding for the enzyme was placed in the NcoI-BamHI site. This construct gives a Pro2Ala substitution which has no significant effect on the kinetic properties of the purified enzyme. The overexpressed enzyme was purified to apparent homogeneity as previously described (Gopaul, et al. (1996) Biochemistry 35, 5963-5970).
(§1) Enzyme Assays. Initial rate measurements were accomplished at 30° C. in reaction mixtures containing 50 mM potassium phosphate, pH 7.5, or 50 mM Hepes, pH 8.0, and nitrophenylribose or inosine as substrates (Mazella, et al. (1996) J. Am. Chem. Soc. 118, 2111-2112). At pH 7.5 the product p-nitrophenylate anion is present at a concentration which gives a millimolar extinction coefficient of 9.3 cm^-1 at 400 nm. Reaction mixtures with nitrophenylribose as substrate were initiated by the addition of enzyme, and product formation was monitored by continuous recording at 400 nm. With inosine as substrate, the conversion to hypoxanthine was monitored continuously at 280 nm (Parkin, et al. (1991) J. Biol. Chem. 266, 20658-20665). […] The remainder of the inhibitors were analyzed at one fixed substrate concentration and variable inhibitor concentrations. Inhibition constants for IAG-nucleoside hydrolase were established from full kinetic analysis with V and X as inhibitors. […] The remainder of the inhibition constants were characterized by titration of assay mixtures containing a fixed concentration of substrate with variable inhibitor concentrations. […] For Ki determination at a fixed substrate concentration, this approach assumes that substrate and inhibitor compete for the catalytic site.
Inhibitors. Iminoribitol inhibitor were synthesized and purified according to the methods of Furneaux, et al. (Tetrahedron (1997) in press), characterized by NMR, dissolved in H2 O and stored at -20° C. The compounds are enzymatically and chemically stable in H2 O and under conditions of the assay. IU-Nucleoside hydrolase is susceptible to slow-onset tight-binding inhibition under certain conditions (Horenstein & Schramm, (1993b) Biochemistry 32, 9917-9925, Boutellier, et al. (1994) Biochemistry, 33, 3994-4000). However, in the initial reaction rate conditions described here, only the rapidly reversible competition between substrate and inhibitor is being observed. Thus, the reported kinetic constants are dissociation constants which exclude slow-onset binding.

[3] = target: IAG-nucleoside hydrolase (Trypanosoma brucei, UniProt Q57ZL6); assay: Inhibition of IAG-nucleoside hydrolase, initial rates; details: for inhibition at highest concentration tested: 80, 120, 120 and 160 μM II, III, IV and VI respectively, 75 μM inosine
Procedure: The enzyme was purified to apparent homogeneity as determined by denaturing polyacrylamide gel electrophoresis (Parkin, (1996) J. Biol. Chem. 271, 21713-21719). Some of the studies used the T. brucei brucei enzyme which was overexpressed in E. coli.
as §1, with “concentrations.” for “concentrations. Inhibition constants for IAG-nucleoside hydrolase were established from full kinetic analysis with V and X as inhibitors.”
Inhibitors. Iminoribitol inhibitor were synthesized and purified according to the methods of Furneaux, et al. (Tetrahedron (1997) in press), characterized by NMR, dissolved in H2 O and stored at -20° C.

[4] = apparent constant, single inosine concentration near Km, three inhibitor concentrations, read-out: Ki(app)

Chain of IAG-nucleoside hydrolase (Q57ZL6 entry or part of it): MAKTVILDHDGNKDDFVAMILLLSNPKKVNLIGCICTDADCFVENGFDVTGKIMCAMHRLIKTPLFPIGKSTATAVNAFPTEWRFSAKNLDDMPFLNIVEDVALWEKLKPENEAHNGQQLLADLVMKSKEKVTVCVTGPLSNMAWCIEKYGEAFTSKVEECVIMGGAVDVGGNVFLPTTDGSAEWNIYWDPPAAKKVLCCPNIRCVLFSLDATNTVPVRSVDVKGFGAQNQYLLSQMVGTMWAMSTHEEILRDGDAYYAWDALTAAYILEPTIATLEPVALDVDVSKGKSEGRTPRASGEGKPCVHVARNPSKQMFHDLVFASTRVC
T2 sequence (Q27546 whole entry P2A): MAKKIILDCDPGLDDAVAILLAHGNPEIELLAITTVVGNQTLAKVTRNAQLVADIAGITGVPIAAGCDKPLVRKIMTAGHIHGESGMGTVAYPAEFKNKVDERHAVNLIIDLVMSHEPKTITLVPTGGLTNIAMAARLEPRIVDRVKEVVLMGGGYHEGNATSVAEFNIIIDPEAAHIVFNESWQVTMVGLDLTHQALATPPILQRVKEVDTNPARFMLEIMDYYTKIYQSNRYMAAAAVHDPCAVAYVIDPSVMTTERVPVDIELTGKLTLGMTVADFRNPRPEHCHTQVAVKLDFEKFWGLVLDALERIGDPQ

Nc1ncnc2c1ncn2[C@@H]1O[C@H](CO)C[C@H]1O [3'-d-Adenosine]
Ki [1]: 7290 µM
Substrate or inhibitor concentration (substrate activity limit; nucleoside concentration in parentheses) [1]: < 0.16

CSC[C@H]1O[C@@H](n2cnc3c(N)ncnc32)[C@H](O)[C@@H]1O [5'-Methylthioadenosine]
Ki [1]: 5700 µM
Substrate or inhibitor concentration (substrate activity limit; nucleoside concentration in parentheses) [1]: < 0.0003

C[C@H]1O[C@@H](n2cnc3c(N)ncnc32)[C@H](O)[C@@H]1O [5d-adenosine, 5'-Deoxyadenosine]
substrate activity [1]: Low rates of product formation

C[C@H]1O[C@@H](n2cnc3c(=O)[nH]cnc32)[C@H](O)[C@@H]1O [5d-inosine]
substrate activity [1]: Low rates of product formation

Nc1ncnc2c1ccn2[C@@H]1O[C@H](CO)[C@@H](O)[C@H]1O [7-Deazaadenosine, 7-deazaadenosine]
Ki [1]: 2300 µM
rate of hydrolysis relative to the rate with inosine (detection level) [1]: < 3×10^-4
Substrate or inhibitor concentration (substrate activity limit; nucleoside concentration in parentheses) [1]: < 0.0008
substrate activity ([1]; listed as tubercidin): not a substrate; also recorded: lack of substrate activity
inhibition pattern [1]: competitive inhibitor

Nc1ncnc2c1ncn2[C@@H]1O[C@H](COP(=O)(O)O)[C@@H](O)[C@H]1O [AMP]
Ki [1]: 44000 µM
Substrate or inhibitor concentration (substrate activity limit; nucleoside concentration in parentheses) [1]: < 0.01

O=c1[nH]cnc2c([C@@H]3O[C@H](CO)[C@@H](O)[C@H]3O)n[nH]c12 [Formycin B]
Ki [1]: 1960 µM
Substrate or inhibitor concentration (substrate activity limit; nucleoside concentration in parentheses) [1]: < 0.02

O=c1[nH]cnc2nc[nH]c12 [Hypoxanthine]
Ki [1]: 6200 ± 900 µM
inhibition pattern [1]: slope-linear, competitive patterns

O=[N+]([O-])c1cccc([C@@H]2N[C@H](CO)[C@@H](O)[C@H]2O)c1 [III]
Ki [2]: 7.5 ± 0.5 µM
Ki [3]: > 360 µM
Km /KI IAG-nucleoside hydrolase [3]: < 0.05
inhibition at highest concentration tested [3]: NO inhibition was observed

O=[N+]([O-])c1ccc([C@@H]2N[C@H](CO)[C@@H](O)[C@H]2O)cc1 [IV]
Ki [2]: 1.1 ± 0.1 µM
Ki [3]: > 360 µM
Km /KI IAG-nucleoside hydrolase [3]: < 0.05
inhibition at highest concentration tested [3]: NO inhibition was observed

Nc1cccc([C@@H]2N[C@H](CO)[C@@H](O)[C@H]2O)c1 [IX]
Ki [2]: 0.051 ± 0.004 µM
Ki [3]: 38 ± 4 µM
Km /KI IAG-nucleoside hydrolase [3]: 0.47

OC[C@H]1O[C@@H](n2cnc3c(O)ncnc32)[C@H](O)[C@@H]1O [Inosine]
Vmax /Km for inosine relative to adenosine [1]: 7.8 times
Km [1]: 380 ± 30 µM
Vmax [1]: 50 ± 2 µmol/min/mg
Vmax /Km [1]: 7.6×10^-4 M^-1 S^-1

OC[C@H]1O[C@@H](n2cnc3cncnc32)[C@H](O)[C@@H]1O [Purine riboside]
substrate activity [1]: poor substrate
Vmax /Km [1]: 1.5×10^2 M^-1 S^-1

O=C[C@H](O)[C@H](O)[C@H](O)CO [Ribose]
Ki [1]: 700 ± 100 µM
inhibition pattern [1]: slope-linear, competitive patterns

Cc1cn([C@H]2C[C@H](O)[C@@H](CO)O2)c(=O)[nH]c1=O [Thymidine]
Ki [1]: 7800 µM
substrate activity [1]: no activity being detected
Substrate or inhibitor concentration (substrate activity limit; nucleoside concentration in parentheses) [1]: < 0.0008
apparent Vmax difference, 5-methyluridine vs thymidine ([1]; effect of the 2'-hydroxyl): > 10^5

OC[C@H]1N[C@@H](c2ccc(F)cc2)[C@H](O)[C@@H]1O [VIII]
Ki [2]: 0.057 ± 0.005 µM
inhibition pattern ([2]; minimum of four substrate and three inhibitor concentrations): slope-linear competitive inhibitors
Ki [3]: 205 ± 14 µM
Km /KI IAG-nucleoside hydrolase [3]: 0.088

OC[C@H]1N[C@@H](c2ccc(O)cc2)[C@H](O)[C@@H]1O [VII]
Ki [2]: 0.075 ± 0.004 µM
Ki [3]: 35 ± 2 µM
Km /KI IAG-nucleoside hydrolase [3]: 0.51

O=C(O)c1ccc([C@@H]2N[C@H](CO)[C@@H](O)[C@H]2O)cc1 [VI]
Ki [2]: 0.096 ± 0.007 µM
Ki [3]: > 480 µM
Km /KI IAG-nucleoside hydrolase [3]: < 0.04
inhibition at highest concentration tested [3]: NO inhibition was observed

Nc1ncnc2c1ncn2C1CC(O)C(CO)O1 (stereo not drawn) [d-Adenosine]
Substrate or inhibitor concentration (substrate activity limit; nucleoside concentration in parentheses) [1]: < 0.0006
Ki [1, 4]: 3200 µM

O=c1[nH]cnc2c1ncn2[C@H]1C[C@H](O)[C@@H](CO)O1 [d-Inosine]
Substrate or inhibitor concentration (substrate activity limit; nucleoside concentration in parentheses) [1]: < 0.0003
Ki [1, 4]: 2300 µM

O=[N+]([O-])c1ccc(O[C@@H]2O[C@H](CO)[C@@H](O)[C@H]2O)cc1 [nitrophenylribose, reference compound]
Km ([2]; compound as substrate): 64 ± 6 µM

Cytosine
Km [1]: 4700 µM
Vmax [1]: 36 ± 3 µmol/min/mg
Vmax /Km [1]: 4.5 × 10^3 M^-1 S^-1
